Reference: US20050049220A1, “Dosing regimen for Flaviviridae therapy” (priority 2003, published 2005)
Where a name gives a salt, the structure may show the parent alone. Read-outs that look alike come from different tables or passages of the source.

Key:
Huh-7 cells = assay: Cellular rRNA levels / cytotoxicity in HCV replicon cells; conditions: for log10 RNA reduction at 100 μM, rRNA: 4 days, HCV replicon transfected Huh-7 cells
From the text: In a typical setting, a compound might reduce both the host RNA polymerase activity and the replicon-encoded polymerase activity. Therefore, quantification of rRNA (or any other host RNA polymerase I product) or beta-actin mRNA (or any other host RNA polymerase II) and comparison with RNA levels of the no-drug control is a relative measurement of the effect of the test compound on host RNA polymerases.
With the availability of both the HCV ΔCt data and the rRNA ΔCt, a specificity parameter can be introduced. This parameter is obtained by subtracting both ΔCt values from each other.
IFN-α-2a and ribavirin were tested over a range of concentrations for their ability to reduce the HCV RNA levels in exponentially growing replicon cells after 4 days of exposure as described (Stuyver, L. et al. “A ribonucleoside analogue that blocks the replication of bovine viral diarrhea and hepatitis C viruses in culture” Antimicrob. Agents Chemother. 2003, 47, 244-254).
Gemcitabine was dissolved in DMSO and added to the culture media of a cellular model system of Huh7 cells harboring self-replicating HCV RNA, at final concentrations ranging from […]. In such experiments, one way to express the antiviral effectiveness of a compound is to subtract the threshold reverse-transcriptase polymerase chain reactions (RT-PCR) cycle of the test compound with the average threshold RT-PCR cycle of the negative control. This value is called DeltaCt (ΔCt or dCt). With the availability of both the HCV ΔCt data and the rRNA ΔCt, a specificity parameter can be introduced. This parameter is obtained by subtracting both ΔCt values from each other.

HCV replicon = HCV replicon assay: HCV RNA by Q-RT-PCR, 4 days exposure; type: cell-based, hepatitis C virus (HCV); conditions: for log reduction at 10 µM: read-out: Corrected HCV RNA log10 reduction at 10 μM
Method: Antiviral screening assays can be done in the same media without G418 as follows: in order to keep cells in logarithmic growth phase, seed cells in a 96-well plate at low density, for example 1000 cells per well. Add the test compound immediate after seeding the cells and incubate for a period of 3 to 7 days at 37° C. in an incubator. Media is then removed, and the cells are prepared for total nucleic acid extraction (including replicon RNA and host RNA). Replicon RNA can then be amplified in a Q-RT-PCR protocol, and quantified accordingly. […] This value is called DeltaCt (ΔCt or DCt).
This value is called DeltaCt (ΔCt or dCt).

HCV replicon cells = assay: Prevention studies with natural ribo- or 2′-deoxy nucleosides; type: cell-based, human; conditions: test compound at 96 h EC90 value; nucleosides at 50 μM
[1] = system: HCV replicon cells (Huh-7); assay: 7-day cell growth dynamics, trypan-blue cell count; conditions: range of testing 50-1,000 nM; 7-day dynamics
Method: FIG. 2 is a graphical depiction of the dynamics of cell growth and HCV RNA levels after exposure to control anti-HCV compounds. HCV replicon cells were seeded at approximately 10^4 cells per well in a 24-well plate. Over a 7-day period, cells were counted daily, and rRNA and HCV RNA were quantified by Q-RT-PCR. A: IFN-α-2a at 100 IU/ml; B: ribavirin at 100 μM. ●: cell proliferation in absence of compound; ◯: cell proliferation in presence of compound; ▾: HCV RNA levels in untreated cells; ∇: HCV RNA levels in the presence of compound. The curves shown are averages of 3 independent experiments.
Therefore, experiments were conducted to monitor HCV RNA levels and the cell growth dynamics over a 7-day period.
The dynamics of HCV replicon cells exposed to these inhibitors (at their EC90 value) was monitored over a 7-day period.

HCV = assay: Single treatment of an HCV-infected patient, viral load; type: in vivo, human; conditions: for tolerance / adverse events: patient with multifocal HCC, cirrhosis, ischaemic hepatitis
Method: The tolerance was acceptable, and thus the next day the patient was given a second dosage of approximately 700 mg of gemcitabine. Before the second dosage the baseline viral load was 6.49 log copies/mL.

[2] = Hepatitis C virus, 96 h, read-out: Corrected HCV RNA log10 reduction at 100 μM
[3] = Hepatitis C virus, 96 h, 100 μM, 4 days, HCV replicon transfected Huh-7 cells, read-out: log10 RNA reduction at 100 μM, HCV
[4] = Hepatitis C virus, 96 h incubation, read-out: Corrected HCV RNA EC90
[5] = Hepatitis C virus, 96 h, read-out: Corrected HCV RNA EC90
[6] = second dosage approximately 700 mg

Compound | log10 RNA reduction at 100 μM, rRNA (Huh-7 cells) [log10] | log reduction at 100 µM (HCV replicon; [2]) | log reduction at 100 µM (HCV replicon; [3]) | EC90 (HCV replicon; [4]) [µM] | log reduction at 10 µM (HCV replicon; Hepatitis C virus, 96 h) | further results
NC(=O)NO [Hydroxyurea] | 0.25 ± 0.20 | -0.08 ± 0.16 | 0.17 ± 0.08 | > 100 |  | log reduction at 10 µM (HCV replicon; Hepatitis C virus, 96 h, 10 μM, corrected for rRNA): 0.06 ± 0.04
CN(Cc1cnc2nc(N)nc(N)c2n1)c1ccc(C(=O)N[C@@H](CCC(=O)O)C(=O)O)cc1 [Methotrexate] | 0.07 ± 0.10 | 0.11 ± 0.09 | 0.18 ± 0.01 | > 100 | 0.15 ± 0.01 | 
NC(=O)c1ncn([C@@H]2O[C@H](CO)[C@@H](O)[C@H]2O)c1O [Mizoribine] | 0.21 ± 0.50 | 0.08 ± 0.82 | 0.29 ± 0.74 | > 100 | -0.14 ± 0.12 | 
COc1c(C)c2c(c(O)c1C/C=C(\C)CCC(=O)O)C(=O)OC2 [Mycophenolic acid] | 1.09 ± 0.28 | 0.07 ± 0.47 | 1.15 ± 0.43 | > 100 | 0.22 ± 0.01 | 
O=C(O)C[C@H](NC(=O)CP(=O)(O)O)C(=O)O [PALA, N-(Phosphonoacetyl)-L-aspartate] | 0.48 ± 0.02 | 1.3 ± 0.05 | 1.77 ± 0.02 |  | 1.18 ± 0.11 | EC90 (HCV replicon; [5]): 7.6 µM
Nc1ccn(C2OC(CO)C(O)C2=CF)c(=O)n1 (stereo not drawn) [Tezacytabine] | 1.78 ± 0.69 |  |  |  |  | Corrected HCV RNA log10 reduction at 10 μM (HCV replicon; 10 μM, corrected for rRNA): 0.63 ± 0.07 log10; log10 RNA reduction at 100 μM, HCV (HCV replicon; 100 μM, 4 days, HCV replicon transfected Huh-7 cells): 1.59 ± 0.08 log10; Corrected HCV RNA log10 reduction at 100 μM (HCV replicon; 100 μM, corrected for rRNA): −0.19 ± 0.49 log10; EC90 (HCV replicon; 96 h incubation, read-out: Corrected HCV RNA EC90): > 100 µM
NC(=O)c1csc([C@@H]2O[C@H](CO)[C@@H](O)[C@H]2O)n1 [Tiazofurin] | 0.99 ± 0.35 | -0.13 ± 0.37 |  |  | 0.04 ± 0.1 | EC90 (HCV replicon; [5]): > 100 µM; log reduction at 100 µM (HCV replicon; Hepatitis C virus, Huh-7, 96 h, read-out: log10 RNA reduction at 100 μM, HCV): 0.86 ± 0.27
Nc1ccn([C@@H]2O[C@H](CO)[C@@H](O)C2(F)F)c(=O)n1 [dFdC, 2′-deoxy-2′,2′-difluorocytidine] |  |  |  |  | 1.32 ± 0.08 | prevention of antiviral and cytostatic effects by natural nucleosides (HCV replicon cells): prevented by 2′-deoxycytidine; IC50 (Huh-7 cells; Homo sapiens, Huh-7): 0.24 µM; log10 RNA reduction, rRNA (Huh-7 cells; dFdC tested initially at 50 μM): 0.59 ± 0.05 log10; non-cytotoxic concentration [1]: could not be found; tolerance / adverse events (HCV; listed as gemcitabine): heart problems; baseline viral load before the second dosage (HCV; patient, day after 1200 mg gemcitabine HCl with oxaliplatine): 6.49 log copies/mL; HCV RNA eight hours after the second dosage (HCV; [6]): 4.04 log copies/mL; drop in HCV RNA in eight hours (HCV; [6]): ~2.5 log; Corrected HCV RNA EC90 (HCV replicon; 96 h incubation): Too toxic; antiviral activity on HCV replicon RNA (HCV replicon; HCV replicon cells): most potent inhibitor of both replicon RNA and cells; EC90 (HCV replicon; Hepatitis C virus, Huh-7, 96 h, 4-days incubation, Huh7 cells harboring self-replicating HCV RNA, read-out: EC90, reduction of replicon HCV RNA): ~0.07 µM; EC50 (HCV replicon; Hepatitis C virus, Huh-7, Huh7 cells harboring self-replicating HCV RNA, read-out: EC50, reduction of HCV RNA levels): 0.04 µM; log10 RNA reduction, HCV (HCV replicon; dFdC tested initially at 50 μM): 1.87 ± 0.16 log10; Corrected HCV RNA log10 reduction (HCV replicon; dFdC tested initially at 50 μM, corrected for rRNA): 1.29 ± 0.11 log10
O=c1ccn(C2OC(CO)C(O)C2(F)F)c(=O)[nH]1 (stereo not drawn) [dFdU] |  |  |  |  |  | dCt rRNA (Huh-7 cells; 7.0 μM): 1.96; dCT HCV (HCV replicon; 7.0 μM): 6.39; ddCt (HCV replicon; 7.0 μM, HCV dCt minus rRNA dCt): 4.42
Nc1ccn([C@@H]2O[C@H](CO)[C@@H](O)C2(F)F)c(=O)n1 [gemcitabine HCl] |  |  |  |  |  | tolerance / adverse events (HCV; HCl): acceptable
